Results on 21 molecules are retold here after patent US20170298056A1, “SMALL MOLECULE INHIBITORS OF HIV-1 ENTRY AND METHODS OF USE THEREOF” (Dana-Farber Cancer Institute, Inc., priority 2014, published 2017).

One may read the IC50 as the concentration that gives 50% inhibition.

Assay [1] deals with amphotropic murine leukemia virus (A-MLV). In words: Viral infection assay, control virus with A-MLV envelope. The format is cell-based. The note with it: Example 8 table; read-out: IC50 (A-MLV). How it is done:
(§1) Production of recombinant HIV-1 expressing luciferase. […] After 48 hours, the supernatant was collected, buffered with 50 mM Hepes pH 7.4 (final concentration) and centrifuged for 5 minutes at 750×g and 4° C. The virus-containing supernatant was used directly or frozen at −80° C.
(§2) Viral infection assay. Each test compound was serially diluted in DMSO in a 96-well B&W isoplate (PerkinElmer, Boston, Mass.) using an HP D300 Digital Dispenser, to a final volume of 450 nl. DMSO was used as a control. Viruses pseudotyped with a specific Env were added to each well and incubated briefly at room temperature. Cf2Th-CD4/CCR5 cells were detached with StemPro Accutase Cell Dissociation Reagent (Invitrogen, cat #A11105-01), washed once, and 5000 cells were added to each well. […] Following incubation, the medium was aspirated and cells were lysed with 30 μl of Passive Lysis Buffer (Promega, cat #E1941). The activity of the firefly luciferase, which was used as a reporter protein in the system, was measured with a Centro LB 960 luminometer (Berthold Technologies, Oak Ridge, Tenn.). One hundred microliters of assay buffer (15 mM MgSO4, 15 mM KH2PO4/K2HPO4 pH 7.8, 1 mM ATP and 1 mM DTT) was injected to each well, followed by a 50 μl injection of 1 mM Dluciferin potassium salt (BD Pharmingen, San Jose, Calif.); luminescence was measured for 2 sec. Infection of PBMC was done as above, but 20,000-40,000 cells/well and viruses concentrated by ultracentrifugation were used. After four hours of incubation with viruses, the cells were centrifuged at 200×g for 6 minutes at 4° C., resuspended in 100 μl RPMI-PBMC medium and incubated at 37° C. for an additional 36-40 hours (total 40-44 hours). Supernatant was removed after centrifugation at 400×g for 5 minutes and cells were processed to detect luciferase activity, as described above.
The effect of 18A on viral infection was tested using recombinant HIV-1 pseudotyped with the envelope glycoproteins of different primate immunodeficiency viruses or the amphotropic murine leukemia virus (A-MLV) as a control.

The test system of another assay is HIV-1JR-FL. In words: Viral infection assay, recombinant HIV-1 pseudotyped with JR-FL Env (wild type and mutants), Cf2Th-CD4/CCR5 cells. The assay is classed as cell-based. The note with it: for IC50: Example 8 table, read-out: IC50 (JR-FL); for Therapeutic Index (TI): calculated from IC50 against JR-FL and A-MLV.
Text: HIV-1 Env mutants. Mutations were introduced into the plasmid expressing the fulllength HIV-1YU2 or HIV-1JR-FL Envs using the QuikChange II site-directed mutagenesis protocol or the QuikChange multi site-directed mutagenesis kit (Stratagene). The presence of the desired mutations was confirmed by DNA sequencing. All HIV-1 Env residues are numbered based on alignment with the HXBc2 prototypic sequence, according to current convention.
as §1, §2

Bounds are passed on as bounds.

Turning to `O=C(N/N=C/c1ccc(O)c(Br)c1)Nc1cccc2nsnc12` [Compound 18A48], the IC50 (in assay [1]; in the assay on HIV-1JR-FL) was > 112 µM in each case.

Regarding `COc1ccc(/C=N/NC(=O)Nc2cccc3nsnc23)c(O)c1` [Compound 18A58], the IC50 (in assay [1]; with HIV-1JR-FL) was > 112 µM in each case.

Consider `O=C(N/N=C/c1ccc(O)c([N+](=O)[O-])c1)Nc1cccc2nsnc12` [Compound 18A40], for which the IC50 in assay [1] was > 112 µM. In the assay on HIV-1JR-FL, the IC50 is 7.6 µM and the “Therapeutic Index (TI)” value was >14.7.

On to `COc1cc(/C=N/NC(=O)Nc2cccc3nsnc23)cc(OC)c1OC` [Compound 18A21], for which the IC50 (in assay [1]; with HIV-1JR-FL) was > 112 µM each time.

For `COc1ccc(/C=N/NC(=O)Nc2cccc3nsnc23)cc1OC` [Compound 18A5], in assay [1], the IC50 came out at 25.9 µM. Also, in the assay on HIV-1JR-FL, the IC50 came out at 5 µM and the “Therapeutic Index (TI)” value is 5.1.

Consider `O=C(N/N=C/c1ccccc1O)Nc1cccc2nsnc12` [Compound 18A10], for which the half-maximal inhibitory concentration (IC50) in assay [1] is < 0.5 µM; in the assay on HIV-1JR-FL, ~0.7 µM. Also, in the assay on HIV-1JR-FL, the “Therapeutic Index (TI)” value is listed as <1.

`O=C(N/N=C/c1cccc(O)c1O)Nc1cccc2nsnc12` [Compound 18A36]: the IC50 in assay [1] turned out to be 50.5 µM. Further, in the assay on HIV-1JR-FL, the IC50 came to 6.2 µM and the “Therapeutic Index (TI)” value is recorded as 8.1.

`COc1ccc(/C=N/NC(=O)Nc2cccc3nsnc23)c(Cl)c1OC` [Compound 18A30]: the IC50 (in assay [1]; with HIV-1JR-FL) was > 112 µM each time.

As to `COc1cc(/C=N/NC(=O)Nc2cccc3nsnc23)ccc1O` [Compound 18A18], the IC50 in assay [1] was 0.8 µM. In the assay on HIV-1JR-FL, the IC50 turned out to be 1.5 µM and the “Therapeutic Index (TI)” value is on record as 0.6.

For `O=C(N/N=C/c1cccc(O)c1)Nc1cccc2nsnc12` [Compound 18A19], in assay [1], the IC50 worked out at 46.2 µM. Also, in the assay on HIV-1JR-FL, the IC50 amounted to 6.6 µM and the “Therapeutic Index (TI)” value is listed as 7.

`O=C(N/N=C/c1cccc(F)c1)Nc1cccc2nsnc12` [Compound 18A34]: the IC50 was found to be 69.4 µM in assay [1] and 10.2 µM in the assay with HIV-1JR-FL. Further, the “Therapeutic Index (TI)” value with HIV-1JR-FL was 6.8.

Regarding `O=C(N/N=C/c1ccc(O)c(Cl)c1)Nc1cccc2nsnc12` [Compound 18A32], the IC50 came to 19.2 µM in assay [1] and 4 µM in the assay with HIV-1JR-FL.

With `Cc1cc(/C=N/NC(=O)Nc2cccc3nsnc23)cc(C)c1O` [Compound 18A16], the values for the IC50 (in assay [1]; in the assay on HIV-1JR-FL) were 0.1 µM and 0.2 µM, respectively. Further, the “Therapeutic Index (TI)” value in the assay with HIV-1JR-FL is listed as 0.5.

As for `O=C(N/N=C/c1c(O)cc(O)cc1O)Nc1cccc2nsnc12` [Compound 18A17], in assay [1], the IC50 stood at 64 µM. For the same molecule, in the assay on HIV-1JR-FL, the IC50 turned out to be 24.8 µM and the “Therapeutic Index (TI)” value is on record as 2.6.

With `COc1ccc(/C=N/NC(=O)Nc2cccc3nsnc23)cc1O` [Compound 18A25], the IC50 in assay [1] was 11.6 µM. Besides, in the assay with HIV-1JR-FL, the IC50 came out at 1.8 µM and the “Therapeutic Index (TI)” value is recorded as 6.4.

As to `O=C(N/N=C/c1ccc(O)c(O)c1)Nc1cccc2nsnc12` [Compound 18A20], the IC50 in assay [1] worked out at 56.3 µM. In the assay on HIV-1JR-FL, the IC50 amounted to 5.2 µM and the “Therapeutic Index (TI)” value was 10.8.

With `O=C(N/N=C/c1cc(O)cc(O)c1)Nc1cccc2nsnc12` [Compound 18A49], the IC50 in assay [1] was > 112 µM. For the same molecule, in the assay on HIV-1JR-FL, the IC50 turned out to be 13 µM and the “Therapeutic Index (TI)” value was >8.6.

Take `COc1ccc(/C=N/NC(=O)Nc2cccc3nsnc23)cc1` [Compound 18A1]: the IC50 (in assay [1]; in the assay on HIV-1JR-FL) was > 112 µM in each case.

Turning to `O=C(N/N=C/c1ccccc1)Nc1cccc2nsnc12` [Compound 18A13], the IC50 in assay [1] came to 75.2 µM. In the assay with HIV-1JR-FL, the IC50 worked out at 16.9 µM and the “Therapeutic Index (TI)” value was 4.4.

In the case of `COc1ccc(/C=N/NC(=O)Nc2cccc3nsnc23)c(OC)c1` [Compound 18A2], the IC50 in assay [1] was 101 µM. For the same molecule, in the assay on HIV-1JR-FL, the concentration for half-maximal inhibition (IC50) turned out to be 60 µM and the “Therapeutic Index (TI)” value was 1.7.

Consider `O=C(N/N=C/c1ccc(Cn2cccn2)cc1)Nc1cccc2nsnc12` [Compound 18A52], for which the results for the IC50 (in assay [1]; in the assay on HIV-1JR-FL) were 37.3 µM and 3.4 µM, respectively. The “Therapeutic Index (TI)” value in the assay on HIV-1JR-FL is recorded as 11.
